One assay has as its system iPSC-derived NK cells. As to the kind of experiment: iNK expansion by co-culture with IL21 and 41BBL expressing irK562 feeder cells. It counts as cell-based, human. Conditions: about 3 μM added at day 2 of about 7 day expansion, versus without AhR inhibitor, FIG. 14. An excerpt:
To modulate effector cell activation during the cell expansion stage of iPSC differentiation, an AhR (aryl hydrocarbon receptor) inhibitor was discovered to improve effector cell function, including anti-tumor efficacy. iPSCs were differentiated into definitive HE cells as previously described, and were subsequently differentiated into pre-expansion NK cells, at which point they were expanded by co-culture with IL21 and 41BBL expressed by irK562 feeder cells for about 7 days. An exemplary AhR inhibitor, CH-223191 (among others such as UM729, UM171, SR1), was added to the expansion culture at day 2 with a final concentration of about 3 μM to potentiate expansion signals.

A further assay relates to tumor. Nature of the assay: anti-tumor efficacy of treated, cryopreserved iNK cells. Type of assay: cell-based. Conditions: treated and cryopreserved cells versus untreated or control cells, FIG. 15. An excerpt: Cells that have been treated with CH-223191 were cryopreserved in liquid nitrogen long term. To assess recovery of the cells from cryopreservation, the cells were thawed and cultured in B0 medium for a period of 7 days and cell counts taken during the course of this culture. […] Further, cells that have been treated with CH-223191 and cryopreserved in liquid nitrogen were further assessed for function in vitro and in vivo.

Assay [1] has as its system hiPSC-derived CD34+ HE cells. Nature of the assay: hiPSC monolayer differentiation to definitive HE, flow cytometric analysis of D10 cells. Type of assay: cell-based, human. The protocol:
To initiate differentiation towards the hematopoietic lineage, hiPSCs were seeded as a monolayer on Day (D) 0 in the maintenance medium and allowed to adhere and expand for about 24 hours. The monolayers were maintained until around D5-D6 at which point they were dissociated into single cells and seeded as a low-density monolayer until differentiation at around D10. The D10 dissociated single cell population was sorted by FACS for further analysis and marker profiling for definitive HE characterization. Alternatively, or in addition thereto, as disclosed herein, one or more of anti-CD82, anti-CD34, and anti-CD43 antibodies were used for cell sorting the D10 cell population to obtain definitive HE cells comprising a phenotype of CD82^+, CD34^+CD82^+ or CD34^+CD43^−CD82^+, which were optionally cryopreserved in cryopreservation medium or continued with effector cell differentiation.
The flow cytometric analysis of D10 cells differentiated under control conditions was compared to cells differentiated under cytokine conditions that includes BMP4. RUNX1 is a transcription factor expressed in the cell and believed to be mostly associated with HE identity. The cells were gated on single/live events. The […] cells and the […] cells were then stained with anti-human antibodies and analyzed by LEGENDScreen™. […]

Another assay concerns TNF-α production. As to conditions: previously shown; cited from earlier work.

For the molecule `Cc1ccccc1N=Nc1ccc(NC(=O)c2ccnn2C)c(C)c1` [CH-223191], the “fold expansion and yield of differentiated NK cells” value in the assay with iPSC-derived NK cells is “greater fold expansion and yield of differentiated NK cells”. In addition, the anti-tumor efficacy entry in the assay on tumor is listed as “enhanced anti-tumor efficacy at endpoint”. As to `Fc1ccc(-c2nc(C3CCNCC3)sc2-c2ccnc(NC3CC3)n2)cc1` [DBM1285, cyclopropyl-{4-[4-(4-fluorophenyl)-2-piperidin-4-yl-thiazol-5-yl]pyrimidin-2-yl}amine], the “maintenance of CD82 expression (CD82+RUNX1+ subpopulation of CD34+ HE cells)” value in assay [1] (p38 MAPK inhibitor added to composition for obtaining definitive HE cells from iPSC) is reported as “beneficial to maintain CD82 expression”. In the assay on TNF-α production, the TNF-α production entry is “inhibit TNF-α production”.

B1: BMP4: bone morphogenetic protein, cytokine, BMP activator (protein, UniProt P12644 293-408, looked up)
Bone morphogenetic protein 4: SPKHHSQRARKKNKNCRRHSLYVDFSDVGWNDWIVAPPGYQAFYCHGDCPFPLADHLNSTNHAIVQTLVNSVNSSIPKACCVPTELSAISMLYLDEYDKVVLKNYQEMVVEGCGCR
Consider B1, for which the “specification of RUNX1+ HE” value in assay [1] (D10 cells, cytokine conditions including BMP4 versus control conditions, FIG. 1) is listed as “specification of RUNX1^+ HE is cytokine driven”.

The values above are taken from patent US20260109951A1, “METHODS AND COMPOSITIONS FOR INDUCING HEMATOPOIETIC CELL DIFFERENTIATION” (FATE THERAPEUTICS, INC., priority 2022, published 2026).
